Assay [1] addresses DNA dC->dU-editing enzyme APOBEC-3A (Homo sapiens, UniProt P31941). The assay is described as follows: A3A deaminase inhibition for selectivity – biochemical, dose response (AID 504722). The class given is functional.
The target of assay [2] is DNA dC->dU-editing enzyme APOBEC-3G (Homo sapiens, UniProt Q9HC16). As to the kind of experiment: Dose Response confirmation of small molecule APOBEC3G DNA Deaminase Inhibitors via a fluorescence-based single-stranded DNA deaminase assay. [Related pubchem assays (depositor defined):AID493012, AID493028]. The class given is functional.
Chain of DNA dC->dU-editing enzyme APOBEC-3G (Q9HC16 whole entry): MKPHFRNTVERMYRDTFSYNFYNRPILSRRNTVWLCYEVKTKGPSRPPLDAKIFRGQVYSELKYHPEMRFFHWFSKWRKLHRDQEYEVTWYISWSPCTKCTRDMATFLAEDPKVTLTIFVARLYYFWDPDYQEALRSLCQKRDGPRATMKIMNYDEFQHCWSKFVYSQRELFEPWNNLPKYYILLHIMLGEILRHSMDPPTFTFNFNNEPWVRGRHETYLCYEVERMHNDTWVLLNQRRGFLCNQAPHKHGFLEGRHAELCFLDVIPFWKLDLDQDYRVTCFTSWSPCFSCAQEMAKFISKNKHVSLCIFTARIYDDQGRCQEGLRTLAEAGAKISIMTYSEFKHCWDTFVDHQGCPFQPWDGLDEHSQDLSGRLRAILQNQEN
The test system of another assay is INS1. The assay is described as follows: INS-1E survival protection against cytokine death – cell-based, luminescence, retest, dose response (AID 449756).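 Further: cell death triggered by IL-1 beta plus TNF-alpha plus IFN-gamma mixture; protective hits raise ATP signal compared with cytokine alone wells.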 The class given is functional. The note with it: Rattus norvegicus.
Assay [3] addresses T1, Short transient receptor potential channel 4 (Mus musculus, UniProt Q9QUQ5).
T1 sequence (Q9QUQ5 whole entry): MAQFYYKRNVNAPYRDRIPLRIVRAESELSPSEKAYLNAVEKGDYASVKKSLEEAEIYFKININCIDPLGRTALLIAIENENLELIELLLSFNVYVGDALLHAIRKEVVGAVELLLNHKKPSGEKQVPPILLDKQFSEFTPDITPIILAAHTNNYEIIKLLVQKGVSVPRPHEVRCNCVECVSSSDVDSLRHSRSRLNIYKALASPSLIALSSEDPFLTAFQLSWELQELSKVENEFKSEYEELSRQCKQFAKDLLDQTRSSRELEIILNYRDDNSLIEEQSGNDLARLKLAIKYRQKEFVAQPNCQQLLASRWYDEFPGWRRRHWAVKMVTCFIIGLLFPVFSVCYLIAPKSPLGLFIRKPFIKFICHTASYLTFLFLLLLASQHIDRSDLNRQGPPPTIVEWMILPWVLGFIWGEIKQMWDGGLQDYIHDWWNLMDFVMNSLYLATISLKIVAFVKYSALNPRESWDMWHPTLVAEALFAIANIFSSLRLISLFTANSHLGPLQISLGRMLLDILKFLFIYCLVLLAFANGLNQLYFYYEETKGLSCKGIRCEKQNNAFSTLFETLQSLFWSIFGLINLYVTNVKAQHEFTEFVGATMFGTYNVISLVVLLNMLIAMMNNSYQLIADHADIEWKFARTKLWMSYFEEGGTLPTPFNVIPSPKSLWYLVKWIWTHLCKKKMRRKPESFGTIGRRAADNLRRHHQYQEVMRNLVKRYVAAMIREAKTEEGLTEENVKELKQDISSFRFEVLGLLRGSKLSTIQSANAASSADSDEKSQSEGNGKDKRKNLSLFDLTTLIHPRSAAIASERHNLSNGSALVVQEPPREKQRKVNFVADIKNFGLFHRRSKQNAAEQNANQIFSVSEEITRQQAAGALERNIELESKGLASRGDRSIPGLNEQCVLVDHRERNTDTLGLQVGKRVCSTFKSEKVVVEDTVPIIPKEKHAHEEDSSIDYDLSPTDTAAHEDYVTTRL
As to the kind of experiment: block of DAMGO-driven TRPC4 calcium entry – cell-based, HEK293 TRPC4/mu-opioid, Fluo-4 calcium, dose response (AID 434942).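 Further: potency of inhibitors blocking the TRPC4 calcium response.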 The class given is functional.

Assay [4] in a line: Luminescence Cell-Based Dose Retest to Confirm Inhibitors of Cancer Stem Cells. [Related pubchem assays (depositor defined):AID2717, AID2721]. The class given is functional. The note with it: Homo sapiens.
The nature of assay [5]: Counterscreen for inhibitors of Trypanosoma brucei methionyl tRNA synthetase (MetRS): Luminescence-based cell-based high throughput dose response assay to identify compounds that are cytotoxic to Jurkat human T lymphocyte cells. The class given is functional.
For assay [6], the system named is Streptococcus sp. 'group A'. As to the kind of experiment: Streptococcus pyogenes SK(-)GAS viability under kanamycin – luminescence, BacTiterGlo, confirmation, counter-screen for streptokinase expression inhibitor project, dose response (AID 1900). The class given is functional, organism-based.
The test system of another assay is Streptococcus. The assay is described as follows: GAS UMAA2166 growth inhibition – luminescence, BacTiterGlo, counter-screen for streptokinase expression inhibitor project, dose response (AID 1915).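 Further: potency for reduction of bacterial viability or growth.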 The class given is functional, organism-based.
The target of assay [7] is T2, DNA repair and recombination protein RAD54-like (Homo sapiens, UniProt Q92698).
T2 sequence (Q92698 whole entry): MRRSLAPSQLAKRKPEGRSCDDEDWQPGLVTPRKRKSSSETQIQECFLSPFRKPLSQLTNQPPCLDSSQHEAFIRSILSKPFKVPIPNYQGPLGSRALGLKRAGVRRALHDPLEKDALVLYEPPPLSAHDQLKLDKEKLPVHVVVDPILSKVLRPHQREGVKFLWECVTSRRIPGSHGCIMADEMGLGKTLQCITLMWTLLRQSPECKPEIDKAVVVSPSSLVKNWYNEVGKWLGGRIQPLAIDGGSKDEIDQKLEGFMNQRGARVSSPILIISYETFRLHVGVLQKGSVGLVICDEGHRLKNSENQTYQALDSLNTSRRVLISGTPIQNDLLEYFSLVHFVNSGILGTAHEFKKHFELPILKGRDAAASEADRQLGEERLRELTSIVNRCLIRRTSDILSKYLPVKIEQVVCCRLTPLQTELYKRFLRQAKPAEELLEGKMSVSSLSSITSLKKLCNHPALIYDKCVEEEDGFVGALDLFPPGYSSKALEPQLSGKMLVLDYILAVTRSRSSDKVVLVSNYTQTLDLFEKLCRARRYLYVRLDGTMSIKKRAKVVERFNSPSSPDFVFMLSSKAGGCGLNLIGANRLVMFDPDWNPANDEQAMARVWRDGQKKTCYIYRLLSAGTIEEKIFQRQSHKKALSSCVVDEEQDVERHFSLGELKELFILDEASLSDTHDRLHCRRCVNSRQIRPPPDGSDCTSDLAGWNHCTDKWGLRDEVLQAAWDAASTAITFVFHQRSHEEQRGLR
As to the kind of experiment: RAD54 Holliday junction migration blockers – biochemical, fluorescence, cherry-picked samples, dose series, confirmation (AID 651657). The class given is functional.

The target of a further assay is Genome polyprotein (dengue virus type 2, UniProt P29990). The assay is described as follows: flavivirus cap methylation enzyme inhibition – biochemical, confirmation dose response, primary screen (AID 588689). The class given is functional.
Chain of Genome polyprotein (P29990 2492-3391 limits assumed): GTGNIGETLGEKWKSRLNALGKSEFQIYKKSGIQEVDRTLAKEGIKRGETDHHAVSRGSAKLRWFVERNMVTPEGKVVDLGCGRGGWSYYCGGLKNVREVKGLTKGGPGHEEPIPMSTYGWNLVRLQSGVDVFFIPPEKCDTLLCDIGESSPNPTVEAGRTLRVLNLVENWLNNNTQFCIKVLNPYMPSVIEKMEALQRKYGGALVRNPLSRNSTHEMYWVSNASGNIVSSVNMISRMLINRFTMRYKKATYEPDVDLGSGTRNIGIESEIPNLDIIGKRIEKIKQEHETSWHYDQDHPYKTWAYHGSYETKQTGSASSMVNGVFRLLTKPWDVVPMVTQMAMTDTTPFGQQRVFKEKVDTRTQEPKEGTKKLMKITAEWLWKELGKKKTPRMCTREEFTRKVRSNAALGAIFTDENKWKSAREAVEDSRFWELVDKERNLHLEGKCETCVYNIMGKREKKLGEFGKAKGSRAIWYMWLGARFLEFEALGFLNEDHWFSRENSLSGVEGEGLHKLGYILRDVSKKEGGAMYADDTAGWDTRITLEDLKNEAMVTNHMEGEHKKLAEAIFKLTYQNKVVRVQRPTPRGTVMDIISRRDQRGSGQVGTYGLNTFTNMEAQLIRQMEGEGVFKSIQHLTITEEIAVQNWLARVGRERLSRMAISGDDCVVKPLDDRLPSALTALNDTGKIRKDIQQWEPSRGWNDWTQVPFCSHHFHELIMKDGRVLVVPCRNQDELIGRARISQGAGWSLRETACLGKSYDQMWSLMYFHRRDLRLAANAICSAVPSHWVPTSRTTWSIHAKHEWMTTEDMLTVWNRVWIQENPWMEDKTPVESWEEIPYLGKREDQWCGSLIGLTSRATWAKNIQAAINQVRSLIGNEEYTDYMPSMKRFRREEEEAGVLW
Assay [8] deals with Glucose-6-phosphate 1-dehydrogenase (Homo sapiens, UniProt P11413). As to the kind of experiment: inhibition of Homo sapiens G6PD, dose series – biochemical, fluorescence, selectivity assay for P. falciparum G6PD inhibitor project, dose response (AID 504792). The class given is functional.
Chain of Glucose-6-phosphate 1-dehydrogenase (P11413 whole entry, the tested form may be a part): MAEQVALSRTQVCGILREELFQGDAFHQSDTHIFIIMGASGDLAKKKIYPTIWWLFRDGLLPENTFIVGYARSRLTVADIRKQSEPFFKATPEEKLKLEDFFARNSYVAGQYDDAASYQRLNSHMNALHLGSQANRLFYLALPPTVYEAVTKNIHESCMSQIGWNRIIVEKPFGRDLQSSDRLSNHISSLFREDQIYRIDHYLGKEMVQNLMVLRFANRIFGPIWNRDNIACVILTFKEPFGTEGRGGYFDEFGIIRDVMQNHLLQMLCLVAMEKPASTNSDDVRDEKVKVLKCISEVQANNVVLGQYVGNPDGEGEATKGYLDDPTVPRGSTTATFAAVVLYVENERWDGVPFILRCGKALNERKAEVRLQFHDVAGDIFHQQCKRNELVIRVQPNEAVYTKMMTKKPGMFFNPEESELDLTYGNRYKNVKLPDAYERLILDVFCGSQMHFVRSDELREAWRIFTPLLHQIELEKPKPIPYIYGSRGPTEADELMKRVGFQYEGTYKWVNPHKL
Assay [9] addresses T3, Polyadenylate-binding protein 1 (Homo sapiens, UniProt P11940). The assay is described as follows: MLLE domain peptide-binding blockers, IC50 – biochemical, fluorescence polarization, FITC-PAM2 peptide, dose response (AID 602259). The class given is functional. The note with it: read-out: IC50_Mean.
The target in assay [10] is T3, Polyadenylate-binding protein 1. The assay is described as follows: MLLE binding blockers, Cy5 peptide tracer – biochemical, fluorescence polarization, Cy5-PAM2 peptide, secondary, miRNA deadenylation inhibitor project, dose response (AID 602260). The class given is functional. The following applies: read-out: IC50_Mean.
A further assay has as its target Large T antigen (Simian virus 40, UniProt P03070). The class given is functional, Betapolyomavirus macacae.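 Further: Confirmatory-stage PubChem screen for compounds that inhibit SV40 T antigen.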
Assay [11] has as its target T4, Sentrin-specific protease 8 (Homo sapiens, UniProt Q96LD8).
T4 sequence (Q96LD8 whole entry): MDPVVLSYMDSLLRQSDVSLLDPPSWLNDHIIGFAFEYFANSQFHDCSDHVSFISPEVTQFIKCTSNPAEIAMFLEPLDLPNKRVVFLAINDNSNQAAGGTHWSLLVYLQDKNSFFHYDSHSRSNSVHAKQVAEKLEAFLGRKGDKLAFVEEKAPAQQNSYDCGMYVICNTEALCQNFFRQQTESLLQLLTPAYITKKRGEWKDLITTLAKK
The class given is functional.

Assay [12] concerns the target T4, Sentrin-specific protease 8. The class given is functional. This is another data set of the same source.
For assay [13], the target named is T5, DNA repair protein RAD52 homolog (Homo sapiens, UniProt P43351).
T5 sequence (P43351 whole entry): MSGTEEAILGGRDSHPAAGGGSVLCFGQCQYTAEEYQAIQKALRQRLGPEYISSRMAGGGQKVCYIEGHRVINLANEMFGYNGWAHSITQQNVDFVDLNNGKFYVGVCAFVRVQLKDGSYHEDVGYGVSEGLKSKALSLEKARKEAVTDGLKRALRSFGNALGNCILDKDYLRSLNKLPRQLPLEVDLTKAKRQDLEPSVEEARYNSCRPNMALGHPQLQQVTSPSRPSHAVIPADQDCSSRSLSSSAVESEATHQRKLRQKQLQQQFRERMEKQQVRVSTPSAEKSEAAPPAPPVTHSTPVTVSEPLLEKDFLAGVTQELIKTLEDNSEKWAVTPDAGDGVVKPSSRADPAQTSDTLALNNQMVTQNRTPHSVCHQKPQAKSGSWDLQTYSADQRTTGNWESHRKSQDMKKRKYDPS
The class given is functional, biochemical.

For assay [14], the system named is BJ. As to the kind of experiment: BJ-TERT-LT-ST fibroblast viability loss – cell-based, RAS-independent, luminescence, dose response (AID 1935).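 Further: BJ fibroblasts immortalized with TERT plus LT and ST oncogenes.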 The class given is functional. The note with it: Homo sapiens.
Assay [15] concerns BJ. The assay is described as follows: cells. The class given is functional, cell-based. The following applies: Homo sapiens.
For assay [16], the target named is T6, Ubiquitin-conjugating enzyme E2 N (Homo sapiens, UniProt P61088).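 Further: Dose-response confirmation in a TR-FRET assay detecting UBC13-driven polyubiquitin chain formation, inhibition measured.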
T6 sequence (P61088 whole entry): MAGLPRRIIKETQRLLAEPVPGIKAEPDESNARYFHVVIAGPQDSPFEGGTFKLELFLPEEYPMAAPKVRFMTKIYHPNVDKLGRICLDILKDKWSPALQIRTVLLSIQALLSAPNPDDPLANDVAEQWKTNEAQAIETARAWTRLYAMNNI
The class given is functional.

Assay [17] relates to BJ. The assay is described as follows: growth inhibition of engineered Ras-driven BJ cells – cell-based, alamar blue fluorescence, cherrypicked samples, dose response (AID 2631).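 Further: confirmatory dose-response assay in RAS-dependent BJ fibroblasts engineered with TERT, LT and ST, with cytotoxicity read by fluorescence.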 The class given is functional. The note with it: Homo sapiens.
Assay [18] can be described thus: DRD fibroblast viability loss – cell-based, non-viral oncogenic, luminescence, dose response (AID 1934). The class given is functional. The note with it: Homo sapiens.
For assay [19], the system named is BJ. As to the kind of experiment: BJ-TERT fibroblast viability loss – cell-based, RAS-independent, luminescence, dose response (AID 1933). The note with it: Homo sapiens. The class given is functional.

The source made the active and inactive calls. Some results are limits rather than exact numbers.

Chain of DNA dC->dU-editing enzyme APOBEC-3A (P31941 whole entry): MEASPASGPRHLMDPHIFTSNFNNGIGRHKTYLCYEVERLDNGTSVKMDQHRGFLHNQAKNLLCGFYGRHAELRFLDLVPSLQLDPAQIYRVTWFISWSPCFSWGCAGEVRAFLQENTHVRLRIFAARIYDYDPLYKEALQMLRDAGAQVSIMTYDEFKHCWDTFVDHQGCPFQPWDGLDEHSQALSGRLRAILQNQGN
T3 sequence (P11940 whole entry, the tested form may be a part): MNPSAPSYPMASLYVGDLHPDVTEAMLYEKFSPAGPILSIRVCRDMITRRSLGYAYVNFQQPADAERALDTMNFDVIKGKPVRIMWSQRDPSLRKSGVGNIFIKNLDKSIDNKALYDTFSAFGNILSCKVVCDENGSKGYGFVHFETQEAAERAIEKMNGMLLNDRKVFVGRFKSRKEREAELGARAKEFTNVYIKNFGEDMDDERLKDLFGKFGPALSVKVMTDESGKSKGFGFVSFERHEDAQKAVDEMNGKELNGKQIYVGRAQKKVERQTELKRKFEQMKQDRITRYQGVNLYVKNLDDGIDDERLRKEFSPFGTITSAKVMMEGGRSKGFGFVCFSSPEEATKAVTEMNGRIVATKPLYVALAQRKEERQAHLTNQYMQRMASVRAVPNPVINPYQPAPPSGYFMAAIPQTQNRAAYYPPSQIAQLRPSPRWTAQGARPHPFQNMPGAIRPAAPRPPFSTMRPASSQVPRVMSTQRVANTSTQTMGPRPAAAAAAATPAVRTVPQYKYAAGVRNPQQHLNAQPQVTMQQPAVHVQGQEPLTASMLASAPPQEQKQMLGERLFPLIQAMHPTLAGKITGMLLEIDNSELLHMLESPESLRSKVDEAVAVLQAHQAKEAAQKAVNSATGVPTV
Chain of Large T antigen (P03070 whole entry): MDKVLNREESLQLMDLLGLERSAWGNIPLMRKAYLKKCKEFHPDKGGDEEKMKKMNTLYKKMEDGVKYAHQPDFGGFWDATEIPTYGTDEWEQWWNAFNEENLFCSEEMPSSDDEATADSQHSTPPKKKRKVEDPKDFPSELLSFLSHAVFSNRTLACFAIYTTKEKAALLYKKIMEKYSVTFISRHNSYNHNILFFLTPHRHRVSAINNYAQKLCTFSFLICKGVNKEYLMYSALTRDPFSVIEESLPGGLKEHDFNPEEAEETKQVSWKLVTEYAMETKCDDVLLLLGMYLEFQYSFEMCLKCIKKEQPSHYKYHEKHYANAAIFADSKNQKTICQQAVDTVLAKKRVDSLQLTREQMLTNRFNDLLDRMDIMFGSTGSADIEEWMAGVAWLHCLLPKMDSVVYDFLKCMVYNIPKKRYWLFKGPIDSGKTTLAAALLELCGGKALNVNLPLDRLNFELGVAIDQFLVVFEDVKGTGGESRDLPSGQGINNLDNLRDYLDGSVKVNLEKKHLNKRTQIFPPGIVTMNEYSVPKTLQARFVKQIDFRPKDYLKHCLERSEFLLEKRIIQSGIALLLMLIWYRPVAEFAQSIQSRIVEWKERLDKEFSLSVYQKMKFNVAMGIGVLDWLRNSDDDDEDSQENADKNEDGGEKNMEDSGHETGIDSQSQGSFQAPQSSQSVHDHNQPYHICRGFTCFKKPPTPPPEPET

Turning to `Sc1nnc(-c2cccnc2)n1/N=C/c1ccccc1`, the IC50 in assay [1] was > 100 µM (inactive); in assay [2], 2.02 µM (active).

Take `N#CC1=C2SCN(c3ccccc3)CN2C(=O)CC1c1cccs1` (stereo not drawn): the IC50 is > 100 µM (inactive) in [1] and 7.25 µM (active) in assay [2].

As for `Brc1ccccc1CN1CCN(Cc2c[nH]c3ccccc23)CC1`, the concentration at half-maximal activity (AC50) with INS1 is 2.16 µM (active). Further, in assay [3], the EC50 was 0.0747 µM (active).

Consider `CC(CNC(S)=Nc1cc(F)cc(F)c1)CSc1ccc(Cl)cc1` (stereo not drawn), for which the AC50 in assay [4] was 6.24 µM (active). Also, in assay [5], the IC50 is 27.8 µM (inactive). Also, the figures for the EC50 (in assay [6]; in the assay with Streptococcus) were 8.3 µM (active) and 36 µM (active), respectively.

Consider `CCOC(=O)Nc1c2ccccc2nc2ccccc12`, for which, in [7], the AC50 was 54.8 µM (active).

In the case of `Oc1cc(-n2cccn2)c(O)cc1-n1cccn1`, the IC50 on Genome polyprotein was 79.2 µM (active); in [8], 33 µM (inactive); in assay [9], > 66 µM (inactive); in [10], > 66 µM (inactive).

For the compound `Cc1ccc(-c2n[nH]c(=S)n2C)cc1Cl`, the IC50 in assay [1] is > 100 µM (inactive); in [2], 4.34 µM (active).

Turning to `CCn1c(-c2cccc(Cl)c2)n[nH]c1=S`, the IC50 in assay [1] is > 100 µM (inactive); in [2], 6.09 µM (active).

As for `COc1ccc(N2CSC3=C(C#N)C(c4ccc(OC)c(OC)c4)CC(=O)N3C2)c(OC)c1` (stereo not drawn), the IC50 is 52.7 µM (active) on Large T antigen and > 80 µM (inactive) in [8].

With `CCS(=O)(=O)N1CCC(C(=O)N2CCc3ccccc3C2)CC1`, the values for the IC50 in assay [11] and in assay [12] were > 100 µM (inactive) and 8.89 µM (active), respectively.

Regarding `COc1ccc(OC)c(Nc2nc(NCCCN(C)C)nc(N)c2[N+](=O)[O-])c1`, the figures for the AC50 in assay [13] and in [7] were 7.02 µM (active) and 20.2 µM (active), respectively.

Take `CCN1CCN(c2cc(C)c3cc(NC(S)=NCCCN4CCc5ccccc5C4)ccc3n2)CC1`: the AC50 in assay [13] is 3 µM (active); in [7] it was 20.6 µM (active).

`Cc1cnc(C(=O)Nc2c(-c3ccccc3)[nH][nH]c2=O)cn1`: the IC50 in assay [11] was 20.3 µM (active); in assay [12], 30.3 µM (active).

`O=C(CCCCCN1C(=O)c2cccc3cccc(c23)C1=O)NCc1cccnc1`: the EC50 in the assay with BJ [14] is > 150 µM (inconclusive); in the assay with BJ [15], 3.59 µM (inconclusive); in the assay on BJ [17], > 66.7 µM (inactive); in assay [18], > 150 µM (not active); in the assay on BJ [19], > 150 µM (not active). Besides, the IC50 in assay [16] is > 20 µM (inactive).

With `O=C(CN1C(=O)CSC1=O)N1CCc2ccccc2C1`, the IC50 in assay [11] was 80.8 µM (inactive); in assay [12], 10.6 µM (active).

Turning to `CCOC(=O)C1=NN(c2ccccc2C)C2=NC(C)=C(C(=O)OC)C(c3cccc(OC)c3)N12` (stereo not drawn), in [3], the EC50 is 2.99 µM (active).

The values above are taken from ChEMBL document CHEMBL1201862, “PubChem BioAssay data set” (2004).
